From US6362369B1, “Phthalic acid diamide derivatives fluorine-containing aniline compounds as starting material, agricultural and horticultural insecticides, and a method for application of the insecticides” (Nihon Nohyaku Co., Ltd., priority 1997, dated 2002)

Assays:
[1] = tested on: diamondback moth (Plutella xylostella); assay: Insecticidal effect on diamondback moth (Test Example 1); type: in vivo; conditions: for Insecticidal effect on diamondback moth (Test Example 1), judged grade: mortality judged according to the criterion shown in Test Example 1; for Insecticidal effect, Test Example 1: diamondback moth, mortality judged by criterion of Test Example 1
Method in brief: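 Triplicate groups of 10 insects: eggs laid on Chinese cabbage seedling by adults, seedling immersed then air-dried, kept at 25° C. Day-6 hatch counts gave mortality, rated by criterion.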

[2] = tested on: rice leafroller (Cnaphalocrocis medinalis); assay: Insecticidal effect on rice leafroller (Test Example 3); type: in vivo; conditions: 500 ppm, four days after inoculation, 25° C., humidity 70%; for Insecticidal effect on rice leafroller (Test Example 3), judged grade: rice lamina dip, third-instar larvae; for Insecticidal effect, Test Example 3: rice leafroller third-instar larvae, rice lamina immersed
Method in brief: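 Insecticidal effect is judged by a predefined criterion from dead/alive counts four days after infesting air-dried lamina with third-instar larvae, kept on moistened filter paper at 25° C, 70% humidity.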

Structure (SMILES) | Insecticidal effect on diamondback moth (Test Example 1), judged grade [1] | Insecticidal effect on rice leafroller (Test Example 3), judged grade [2] | Insecticidal effect, Test Example 1 [1] | Insecticidal effect, Test Example 3 [2]
Cc1cc(Cl)ccc1NC(=O)c1cccc(SC(C)C)c1C(=O)NC(C)C [compound 788] | C (89-80) | C (89-80) | – | –
Cc1cc(OC(F)F)ccc1NC(=O)c1cccc([S+](C)[O-])c1C(=O)NC(C)C (stereo not drawn) [compound 791] | A (100) | A (100) | – | –
Cc1cc(OC(F)F)ccc1NC(=O)c1cccc(SCC(F)(F)F)c1C(=O)NC(C)C [compound 797] | A (100) | C (89-80) | – | –
Cc1cc(OC(F)F)ccc1NC(=O)c1cccc([S+]([O-])CC(F)(F)F)c1C(=O)NC(C)C (stereo not drawn) [compound 799] | A (100) | A (100) | – | –
Cc1cc(Cl)ccc1NC(=O)c1cccc(C(=O)NC(C)C)c1C(=O)NC(C)C [compound 803] | A (100) | A (100) | – | –
Cc1ccc(Cl)cc1NC(=O)c1ccc2ccccc2c1C(=O)NC(C)C [compound 821] | A (100) | A (100) | – | –
Cc1ccc(Cl)cc1NC(=O)c1cc2ccccc2cc1C(=O)NC(C)C [compound 822] | D (79-50) | D (79-50) | – | –
Cc1cc(Cl)ccc1NC(=O)c1ccccc1C(=O)N(C)C(C)C [compound 826] | A (100) | A (100) | – | –
CC(C)CNC(=O)c1ccccc1C(=O)Nc1ccc(C(F)(F)F)cc1 [compound 833] | A (100) | D (79-50) | – | –
CCC(C)NC(=O)c1c(Cl)cccc1C(=O)Nc1ccc(OC(F)F)cc1C (stereo not drawn) [compound 836] | A (100) | A (100) | – | –
CCC(C)NC(=O)c1c(C(=O)Nc2ccc(OC(F)F)cc2C)cccc1[N+](=O)[O-] (stereo not drawn) [compound 839] | A (100) | C (89-80) | – | –
CC(C)(C)NC(=O)c1ccccc1C(=O)Nc1ccccc1 [compound 840] | A (100) | D (79-50) | – | –
Cc1cc(OC(F)F)ccc1NC(=O)c1c(Cl)cccc1C(=O)NC1CC1 [compound 850] | A (100) | A (100) | – | –
Cc1cc(OC(F)F)ccc1NC(=O)c1cccc([N+](=O)[O-])c1C(=O)NC1CC1 [compound 852] | A (100) | D (79-50) | – | –
Cc1cc(OC(F)F)ccc1NC(=O)c1cccc([N+](=O)[O-])c1C(=O)NC1CCCC1 [compound 856] | A (100) | D (79-50) | – | –
Cc1cc(OC(F)F)ccc1NC(=O)c1cccc([N+](=O)[O-])c1C(=O)NCCF [compound 863] | A (100) | B (99-90) | – | –
C=CCNC(=O)c1c(C(=O)Nc2ccc(OC(F)F)cc2C)cccc1[N+](=O)[O-] [compound 867] | A (100) | C (89-80) | – | –
COCCNC(=O)c1c(C(=O)Nc2ccc(OC(F)F)cc2C)cccc1[N+](=O)[O-] [compound 872] | A (100) | C (89-80) | – | –

Structure (SMILES) | Insecticidal effect on diamondback moth (Test Example 1), judged grade [1] | Insecticidal effect on rice leafroller (Test Example 3), judged grade [2] | Insecticidal effect, Test Example 1 [1] | Insecticidal effect, Test Example 3 [2]
Cc1cc(OC(F)F)ccc1NC(=O)c1cccc([N+](=O)[O-])c1C(=O)NC(C)c1ccccc1 (stereo not drawn) [compound 879] | A (100) | A (100) | – | –
CC(C)NC(=O)c1ccccc1C(=O)Nc1ccc(C(F)(F)C(F)(F)F)cc1 [compound 889] | A (100) | A (100) | – | –
CC(C)NC(=O)c1cccc(F)c1C(=O)Nc1ccc(C(F)(F)C(F)(F)F)cc1 [compound 892] | A (100) | A (100) | – | –
CC(C)NC(=O)c1c(Cl)cccc1C(=O)Nc1ccc(C=C(Cl)C(F)(F)F)cc1 [compound 911] | A (100) | D (79-50) | – | –
CCc1ccc(Cl)c(CC)c1NC(=O)c1cccc(I)c1C(=O)NC(C)C [compound 925] | A (100) | A (100) | – | –
CC(C)(C)NC(=O)c1ccccc1C(=O)Nc1ccc(C(F)(F)F)cc1 [compound 928] | A (100) | A (100) | – | –
CN(C(=O)c1ccccc1C(=O)NC(C)(C)C)c1ccc(OC(F)(F)F)cc1 [compound 933] | A (100) | A (100) | – | –
CCCCNC(=O)c1cccc(I)c1C(=O)Nc1ccc(C(F)(F)C(F)(F)F)cc1C [compound 946] | – | – | A (100) | A (100)
CCCc1cc(I)ccc1NC(=O)c1cccc(I)c1C(=O)NC(C)C [compound 952] | – | – | A (100) | A (100)
Cc1cc(C(F)(F)C(F)(F)F)ccc1NC(=O)c1c(C)cccc1C(=O)NC(C)C [compound 954] | – | – | A (100) | A (100)
Cc1cc(C(F)(F)C(F)(F)F)ccc1NC(=O)c1c(C)cccc1C(=O)NC(C)(C)C [compound 956] | – | – | A (100) | A (100)
Cc1cc(OC(F)(F)F)ccc1NC(=O)c1c(I)cccc1C(=O)NC(C)(C)C [compound 958] | – | – | A (100) | A (100)
CCCNC(=O)c1c(I)cccc1C(=O)Nc1cccc(Cl)c1C [compound 959] | – | – | A (100) | A (100)
CCCCc1cc(I)ccc1NC(=O)c1cccc(I)c1C(=O)NC(C)C [compound 966] | – | – | A (100) | B (99-90)
CC(C)NC(=O)c1ccccc1C(=O)Nc1ccc2c(c1)OC(F)(F)C(F)(F)O2 [compound 975] | – | – | A (100) | A (100)
COCCNC(=O)c1cccc(I)c1C(=O)Nc1ccc(C(F)(F)C(F)(F)F)cc1C [compound 982] | – | – | A (100) | C (89-80)
COCCCNC(=O)c1cccc(I)c1C(=O)Nc1ccc(C(F)(F)C(F)(F)F)cc1C [compound 986] | – | – | A (100) | A (100)
C#CCNC(=O)c1cccc(I)c1C(=O)Nc1ccc(C(F)(F)C(F)(F)F)cc1C [compound 990] | – | – | A (100) | A (100)
